Data from patent US11708357B2, “Crystal form of pyrrolidinyl urea derivative and application thereof” (ZHANGZHOU PIEN TZE HUANG PHARMACEUTICAL CO., LTD., priority 2020, dated 2023).

What was measured:
CYP3A4 = target: T1, CYP3A4 (Homo sapiens, UniProt P08684); assay: Cytochrome P450 isozyme inhibitory activity test, CYP3A4; assay type: in vitro ADME; details: liver microsomes; human liver microsome
T1 construct: from tissue; host or cells: human liver microsomes
Protocol: (§1) The inhibitory activities of the test compound on different subtypes of human cytochrome P450 isozymes were determined. The test compound, standard inhibitor (100× final concentration), and a mixed substrate working solution were prepared; the microsome frozen in −80° C. refrigerator was thawed. […]

[1] = In vivo pharmacokinetic study in rats after single administration; details: male, Sprague Dawley, rat, plasma, 2 mg/kg, 2 mpk intravenous injection
Protocol: Male SD rats were used as test animals, and the concentration of the compound in blood was determined after single administration to evaluate the pharmacokinetic behavior.
Sprague Dawley rats (male, 200-300 g, 7-9 weeks, Shanghai Charles River Laboratory Animal Co., Ltd.)
The pharmacokinetic characteristics of the test compound in rodents after intravenous injection and oral administration were tested by standard protocols, in the experiment, the test compound was prepared into a clear solution or homogeneous suspension, and administered to the rats by single intravenous injection and oral administration. In the intravenous injection group, the menstruum was a certain proportion of ethanol and physiological saline solution or a certain proportion of dimethyl sulfoxide in HP-β cyclodextrin solution (the pH was adjusted to 3-4), the mixture was vortexed and stirred to prepare 1 mg/mL clear solution, then filtered with microporous membrane for later use; in the oral administration group, the menstruum was a certain proportion of sodium carboxymethyl cellulose solution or a certain proportion of dimethyl sulfoxide in HP-β cyclodextrin solution (the pH was adjusted to about 4), after the test compound was mixed with the solvent, the mixture was vortexed and stirred to prepare 30 mg/mL homogeneous suspension for later use. After 2 mg/kg intravenous administration or 300 mg/kg oral administration to rats, a certain amount of whole blood samples were collected, centrifuged at 3000 g for 15 minutes, the supernatant was separated to obtain the plasma samples; then an acetonitrile solution containing internal standard with a volume 3 times that of the plasma sample was added to precipitate proteins, and then centrifuged; the supernatant was separated, and water with a volume twice that of the supernatant was added to the supernatant, which was then centrifuged again; the supernatant was collected for analysis; LC-MS/MS analysis method was used to quantitatively analyze the blood drug concentration, and Phoenix WinNonlin software (Pharsight, USA) was used to calculate the pharmacokinetic parameters, such as peak concentration, time to peak concentration, clearance rate, half-life, area under the concentration-time curve, bioavailability, etc.
(§2) Among them, C0 is the initial concentration, T1/2 is the elimination half-life, Vdss is the steady-state apparent volume of distribution, Cl is the total clearance rate, AUC0-inf is the area under the plasma drug concentration-time curve from time 0 to infinity, Cmax is the peak concentration, Tmax is the time to peak concentration.

CYP1A2 = target: T2, CYP1A2 (Homo sapiens, UniProt P05177); assay: Cytochrome P450 isozyme inhibitory activity test, CYP1A2; assay type: in vitro ADME; details: liver microsomes; human liver microsome
T2 construct: from tissue; host or cells: human liver microsomes
T2 sequence (P05177 1-516): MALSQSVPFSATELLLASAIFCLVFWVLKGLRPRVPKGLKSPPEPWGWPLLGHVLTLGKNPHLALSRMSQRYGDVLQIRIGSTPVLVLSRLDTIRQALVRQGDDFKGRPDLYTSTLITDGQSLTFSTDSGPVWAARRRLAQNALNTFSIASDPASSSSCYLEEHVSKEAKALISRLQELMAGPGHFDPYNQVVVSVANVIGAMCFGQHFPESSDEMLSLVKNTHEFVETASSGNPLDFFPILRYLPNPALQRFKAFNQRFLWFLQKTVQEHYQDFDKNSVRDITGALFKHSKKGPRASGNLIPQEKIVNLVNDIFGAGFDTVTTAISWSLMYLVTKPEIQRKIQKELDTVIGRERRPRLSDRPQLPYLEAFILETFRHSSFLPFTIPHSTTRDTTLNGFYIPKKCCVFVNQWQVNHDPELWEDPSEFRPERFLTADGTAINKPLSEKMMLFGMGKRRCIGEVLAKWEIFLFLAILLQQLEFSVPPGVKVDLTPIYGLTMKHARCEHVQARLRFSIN
Protocol: as §1

[2] = In vivo pharmacokinetic study in beagle dogs after single administration; details: male, dog, plasma, 2 mg/kg, 2 mpk intravenous injection
Protocol: Male beagle dogs were used as test animals, the concentration of the compound in blood after single administration was determined to evaluate the pharmacokinetic behavior.
Beagle dogs (Male, 6-12 kg, more than 6 months, Beijing Marshall Biotechnology Co., Ltd.).
The objective of the test was to study the pharmacokinetic characteristics of the test compound in non-rodent after intravenous injection and oral administration. In the experiment, the test compound was prepared into a clear solution or homogeneous suspension and administered to the beagle dogs by single intravenous injection or oral administration. In the intravenous injection group, the menstruum was a certain proportion of dimethyl sulfoxide in HP-β-cyclodextrin solution or a certain proportion of ethanol, polyethylene glycol 400 and physiological saline solution, the mixture was vortexed and subjected to ultrasonic treatment to prepare 2 mg/mL clear solution, then filtered with microporous membrane for later use; in the oral administration group, the menstruum was a certain proportion of dimethyl sulfoxide in HP-β-cyclodextrin solution or a certain proportion of sodium carboxymethyl cellulose solution, the test compound was mixed with the menstruum, vortexed and subjected to ultrasonic treatment to prepare 2 mg/mL homogeneous suspension for later use. After 2 mg/kg intravenous administration or 10 mg/kg oral administration to the Beagle dogs, a certain amount of whole blood samples were collected, centrifuged at 3000 g for 10 minutes, and the supernatant was separated to obtain plasma samples; then an acetonitrile solution containing internal standard with a volume 10 times that of the plasma sample was added to precipitate proteins, and then centrifuged; the supernatant was separated for analysis; LC-MS/MS analysis method was used to quantitatively analyze the blood drug concentration, and Phoenix WinNonlin software (Pharsight, USA) was used to calculate the pharmacokinetic parameters, such as peak concentration, time to peak concentration, clearance rate, half-life, area under the concentration-time curve, bioavailability, etc.
as §2

CYP2C19 = target: T3, CYP2C19 (Homo sapiens, UniProt P33261); assay: Cytochrome P450 isozyme inhibitory activity test, CYP2C19; assay type: in vitro ADME; details: liver microsomes; human liver microsome
T3 construct: from tissue; host or cells: human liver microsomes
Protocol: as §1

T3 sequence (P33261 whole entry): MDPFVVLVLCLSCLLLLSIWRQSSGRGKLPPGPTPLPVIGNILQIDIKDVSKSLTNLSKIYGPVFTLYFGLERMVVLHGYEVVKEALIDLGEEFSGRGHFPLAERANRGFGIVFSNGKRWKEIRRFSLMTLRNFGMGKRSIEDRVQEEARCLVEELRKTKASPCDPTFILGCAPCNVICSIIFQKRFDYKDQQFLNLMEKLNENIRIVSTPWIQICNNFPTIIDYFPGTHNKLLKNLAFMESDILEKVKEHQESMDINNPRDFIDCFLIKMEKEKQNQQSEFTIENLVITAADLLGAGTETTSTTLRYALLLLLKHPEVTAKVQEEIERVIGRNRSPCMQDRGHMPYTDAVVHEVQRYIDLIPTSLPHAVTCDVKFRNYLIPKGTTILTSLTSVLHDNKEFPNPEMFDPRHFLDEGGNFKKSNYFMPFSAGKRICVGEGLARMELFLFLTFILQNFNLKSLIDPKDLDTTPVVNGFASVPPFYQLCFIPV
T1 sequence (P08684 whole entry): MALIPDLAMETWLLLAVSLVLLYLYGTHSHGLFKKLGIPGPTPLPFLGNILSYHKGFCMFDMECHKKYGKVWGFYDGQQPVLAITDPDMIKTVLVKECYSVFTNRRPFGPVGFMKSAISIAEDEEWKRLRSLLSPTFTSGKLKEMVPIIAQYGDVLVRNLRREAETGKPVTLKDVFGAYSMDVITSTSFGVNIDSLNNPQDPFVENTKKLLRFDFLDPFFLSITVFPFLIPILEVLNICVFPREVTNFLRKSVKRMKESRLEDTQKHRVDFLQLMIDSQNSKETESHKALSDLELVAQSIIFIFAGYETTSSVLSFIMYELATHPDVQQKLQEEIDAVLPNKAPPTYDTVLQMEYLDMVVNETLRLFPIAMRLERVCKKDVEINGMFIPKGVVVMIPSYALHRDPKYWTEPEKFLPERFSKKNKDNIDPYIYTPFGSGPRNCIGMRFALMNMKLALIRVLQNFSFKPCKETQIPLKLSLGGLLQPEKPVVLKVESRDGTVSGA

COCCN1C[C@@H](n2ccc(F)c2)[C@H](NC(=O)Nc2c(C)c(-c3cnc(C4(F)COC4)nc3)nn2-c2ccccc2)C1 [Compound of formula (I)]
IC50 at 10 min (CYP3A4): > 50 µM | AUC(0-inf) [1]: 2.61 µM·h | C0 [1]: 5.38 µM | clearance [1]: 22.4 mL/min/kg | half-life [1]: 33 min | Vd ([1]; read-out: Vdss): 0.81 L/kg | IC50 at 10 min (CYP1A2): > 50 µM | AUC(0-inf) [2]: 4.66 µM·h | C0 [2]: 8.46 µM | clearance [2]: 12.4 mL/min/kg | half-life [2]: 26.4 min | Vd ([2]; read-out: Vdss): 0.49 L/kg | IC50 at 10 min (CYP2C19): > 50 µM
